Experimental data published in the NIST ThermoML archive (doi:10.1021/acs.jced.8b00524).

Columns and labels:
[1] = 100 kPa, Liquid; for viscosity: Concentric cylinders viscometry; for mass density: Vibrating tube method
[2] = xn = mol fraction of the nth substance listed; settings: 100 kPa, Liquid; for viscosity: Concentric cylinders viscometry; for mass density: Vibrating tube method

CCCCOC(C)=O [butyl ethanoate]
[1]
Settings	mass density [kg/m3]	viscosity [mPa·s]
293.15 K	881.1	0.732
298.15 K	876	0.677
303.15 K	870.9	0.628
308.15 K	865.7	0.585
313.15 K	860.5	0.546
318.15 K	855.3	0.512
323.15 K	850.1	0.485

CCCCCCCO [heptan-1-ol]
[1]
Settings	mass density [kg/m3]	viscosity [mPa·s]
293.15 K	822.2	7.03
298.15 K	818.7	5.92
303.15 K	815.2	5.03
308.15 K	811.6	4.3
313.15 K	808	3.71
318.15 K	804.4	3.21
323.15 K	800.7	2.79

CCCCOC(C)=O [butyl ethanoate] + CCCCCCCCCO
[2], x1 = 1
Settings	mass density [kg/m3]	viscosity [mPa·s]
293.15 K	881.1	0.732
298.15 K	876	0.677
303.15 K	870.9	0.628
308.15 K	865.7	0.585
313.15 K	860.5	0.546
318.15 K	855.3	0.512
323.15 K	850.1	0.485

CCCCCCCCCO [nonan-1-ol]
[1]
Settings	mass density [kg/m3]	viscosity [mPa·s]
293.15 K	827.5	11.41
298.15 K	824	9.43
303.15 K	820.5	7.86
308.15 K	817.1	6.61
313.15 K	813.6	5.59
318.15 K	810.1	4.78
323.15 K	806.5	4.1

CCCCCCCCCCO [decan-1-ol]
[1]
Settings	mass density [kg/m3]	viscosity [mPa·s]
293.15 K	829.5	14.42
298.15 K	826.1	11.8
303.15 K	822.7	9.76
308.15 K	819.3	8.14
313.15 K	815.8	6.84
318.15 K	812.4	5.8
323.15 K	808.9	4.96

CCCCOC(C)=O [butyl ethanoate] + CCCCCCCCCCO
[2], x1 = 1
Settings	mass density [kg/m3]	viscosity [mPa·s]
293.15 K	881.1	0.732
298.15 K	876	0.677
303.15 K	870.9	0.628
308.15 K	865.7	0.585
313.15 K	860.5	0.546
318.15 K	855.3	0.512
323.15 K	850.1	0.485

CCCCCCO [hexan-1-ol] + CCCCOC(C)=O
[2], x2 = 0
Settings	mass density [kg/m3]	viscosity [mPa·s]
293.15 K	818.7	5.37
298.15 K	815.1	4.58
303.15 K	811.5	3.94
308.15 K	807.9	3.4
313.15 K	804.2	2.95
318.15 K	800.6	2.58
323.15 K	796.8	2.26

CCCCCCO [hexan-1-ol]
[1]
Settings	mass density [kg/m3]	viscosity [mPa·s]
293.15 K	818.7	5.37
298.15 K	815.1	4.58
303.15 K	811.5	3.94
308.15 K	807.9	3.4
313.15 K	804.2	2.95
318.15 K	800.6	2.58
323.15 K	796.8	2.26

CCCCCCCCO [octan-1-ol] + CCCCOC(C)=O
[2], x2 = 0
Settings	mass density [kg/m3]	viscosity [mPa·s]
293.15 K	824.9	9.13
298.15 K	821.4	7.62
303.15 K	817.9	6.41
308.15 K	814.4	5.43
313.15 K	810.9	4.63
318.15 K	807.3	3.98
323.15 K	803.7	3.44

CCCCOC(C)=O [butyl ethanoate] + CCCCCCCO
[2], x1 = 1
Settings	mass density [kg/m3]	viscosity [mPa·s]
293.15 K	881.1	0.732
298.15 K	876	0.677
303.15 K	870.9	0.628
308.15 K	865.7	0.585
313.15 K	860.5	0.546
318.15 K	855.3	0.512
323.15 K	850.1	0.485

CCCCCCCCO [octan-1-ol]
[1]
Settings	mass density [kg/m3]	viscosity [mPa·s]
293.15 K	824.9	9.13
298.15 K	821.4	7.62
303.15 K	817.9	6.41
308.15 K	814.4	5.43
313.15 K	810.9	4.63
318.15 K	807.3	3.98
323.15 K	803.7	3.44
